# According to patent publication US10070645B2, “N-cycloalkyl-N-{[2-(1-substitutedcycloalkyl)phenyl]methylene}-(thio)carboxamide derivatives” (BAYER CROPSCIENCE AKTIENGESELLSCHAFT, priority 2013, dated 2018):
# Test system: not listed separately
# Assay: log P by HPLC on a reversed-phase column (C 18), EEC Directive 79/831 Annex V.A8
# Format: physicochemical
# Details: HPLC on reversed-phase column (C 18), 40° C., 0.1% aqueous formic acid and acetonitrile, linear gradient 10% to 90% acetonitrile
# Procedure, shortened: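 Reversed-phase C18 HPLC at 40° C, 0.1% aqueous formic acid/acetonitrile gradient from 10% to 90% acetonitrile. log P derived from retention times by linear interpolation between unbranched alkan-2-ones (3–16 carbons) of known log P.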
row,logP,Compound
1,5.36,Cc1ccc(C2(CC(C)C)CC2)c(CN(C(=O)c2c(C(F)F)nn(C)c2F)C2CC2)c1 [I.159]
2,3.68,COCC1(c2ccc(C)cc2CN(C(=O)c2c(C(F)F)nn(C)c2Cl)C2CC2)CC1 [I.183]
3,4.93,Cn1nc(C(F)F)c(C(=O)N(Cc2cc(Cl)c(Cl)cc2C2(C)CC2)C2CC2)c1Cl [I.181]
4,5.59,CC(C)CC1(c2cc(Cl)ccc2CN(C(=O)c2c(C(F)F)nn(C)c2Cl)C2CC2)CC1 [I.158]
5,5.54,Cc1ccc(C2(CC(C)C)CC2)c(CN(C(=O)c2c(C(F)F)nn(C)c2Cl)C2CC2)c1 [I.160]

# Same assay, conditions: HPLC, reversed-phase column (C 18), 40° C., 0.1% aqueous formic acid and acetonitrile, linear gradient 10% to 90% acetonitrile
row,logP,Compound
1,3.83,COc1ccc(CN(C(=O)c2c(C(F)F)nn(C)c2Cl)C2CC2)c(C2(C)CC2)c1 [I.029]
2,5.74,Cn1nc(C(F)F)c(C(=O)N(Cc2cccc(C3CCCCC3)c2C2(C)CC2)C2CC2)c1F [I.007]
3,4.21,CCC1(c2ccccc2CN(C(=O)c2c(C(F)F)nn(C)c2F)C2CC2)CC1 [I.096]
4,3.67,COC1(c2ccc(Cl)cc2CN(C(=O)c2c(C(F)F)nn(C)c2F)C2CC2)CC1 [I.118]
5,4.73,Cn1nc(C(F)F)c(C(=O)N(Cc2cccc(-c3ccccc3)c2C2(C)CC2)C2CC2)c1F [I.012]
6,4.09,COc1cc(CN(C(=S)c2c(C(F)F)nn(C)c2Cl)C2CC2)c(C2(C)CC2)cc1OC [I.056]
7,5.03,Cn1nc(C(F)F)c(C(=O)N(Cc2ccc(-c3ccc(F)c(F)c3)cc2C2(C)CC2)C2CC2)c1F [I.036]
8,3.96,COc1cc(CN(C(=S)c2c(C(F)F)nn(C)c2F)C2CC2)c(C2(C)CC2)cc1OC [I.055]
9,3.87,Cc1ccc(C2(C)CC2)c(CN(C(=O)c2c(C(F)F)nn(C)c2Cl)C2(C#N)CC2)c1 [I.078]
10,4.01,Cn1nc(C(F)F)c(C(=O)N(Cc2cc(F)c(F)cc2C2(C)CC2)C2CC2)c1F [I.048]
11,3.31,Cn1nc(C(F)F)c(C(=O)N(Cc2cc(Cl)ccc2C2(C#N)CC2)C2CC2)c1Cl [I.095]
12,5.42,CC(C)CC1(c2cc(Cl)ccc2CN(C(=O)c2c(C(F)F)nn(C)c2F)C2CC2)CC1 [I.157]
13,5.59,Cn1nc(C(F)F)c(C(=O)N(Cc2cccc(C3=CCCCC3)c2C2(C)CC2)C2CC2)c1F [I.014]
14,5.31,CCCC1(c2cc(Cl)ccc2CN(C(=O)c2c(C(F)F)nn(C)c2Cl)C2CC2)CC1 [I.129]
15,4.51,Cc1ccc(C2(C)CC2)c(CN(C(=O)c2c(C(F)F)nn(C)c2F)C2CC2)c1Cl [I.086]
16,4.96,Cn1nc(C(F)F)c(C(=O)N(Cc2ccc(-c3ccc(F)cc3)cc2C2(C)CC2)C2CC2)c1F [I.041]
17,3.67,Cn1nc(C(F)F)c(C(=O)N(Cc2ccc3c(c2C2(C)CC2)OCO3)C2CC2)c1Cl [I.017]
18,3.87,Cn1nc(C(F)F)c(C(=O)N(Cc2c(Br)cccc2C2(C(F)F)CC2)C2CC2)c1Cl [I.156]
19,4.06,Cn1nc(C(F)F)c(C(=O)N(Cc2ccc(F)cc2C2(C)CC2)C2CC2)c1Cl [I.022]

row,logP,Compound
1,3.09,Cn1nc(C(F)F)c(C(=O)N(Cc2ccc(-c3ccc4ncccc4c3)cc2C2(C)CC2)C2CC2)c1F [I.046]
2,5.26,Cc1ccccc1-c1ccc(CN(C(=O)c2c(C(F)F)nn(C)c2F)C2CC2)c(C2(C)CC2)c1 [I.035]
3,4.74,CCC1(c2cc(C)ccc2CN(C(=O)c2c(C(F)F)nn(C)c2Cl)C2CC2)CC1 [I.105]
4,3.41,Cn1nc(C(F)F)c(C(=O)N(Cc2ccc(F)cc2C2(C(F)F)CC2)C2CC2)c1F [I.144]
5,3.76,Cc1ccc(C2(C(F)F)CC2)c(CN(C(=O)c2c(C(F)F)nn(C)c2Cl)C2CC2)c1 [I.154]
6,4.96,Cn1nc(C(F)F)c(C(=O)N(Cc2ccc(-c3cccc(F)c3)cc2C2(C)CC2)C2CC2)c1F [I.038]
7,2.00,Cn1nc(C(F)F)c(C(=O)N(Cc2ccc(-c3ccncc3)cc2C2(C)CC2)C2CC2)c1F [I.045]
8,3.55,Cn1nc(C(F)F)c(C(=O)N(Cc2ccc(F)cc2C2(C(F)F)CC2)C2CC2)c1Cl [I.145]
9,4.73,C=C(C)c1ccc(CN(C(=O)c2c(C(F)F)nn(C)c2F)C2CC2)c(C2(C)CC2)c1 [I.043]
10,2.35,Cn1nc(C(F)F)c(C(=O)N(Cc2ccc(-c3cccnc3)cc2C2(C)CC2)C2CC2)c1F [I.044]
11,4.56,Cn1nc(C(F)F)c(C(=O)N(Cc2cc(C3CC3)ccc2C2(C)CC2)C2CC2)c1F [I.064]
12,4.56,CCc1ccc(C2(C)CC2)c(CN(C(=O)c2c(C(F)F)nn(C)c2F)C2CC2)c1 [I.065]
13,5.78,Cn1nc(C(F)F)c(C(=O)N(Cc2cccc(C3=CC4CCC3C4)c2C2(C)CC2)C2CC2)c1F (centres unmarked) [I.013]
14,3.13,Cn1nc(C(F)F)c(C(=O)N(Cc2cc(Cl)ccc2C2(C#N)CC2)C2CC2)c1F [I.094]
15,3.99,Cn1nc(C(F)F)c(C(=O)N(Cc2cccc(F)c2C2(C)CC2)C2CC2)c1Cl [I.009]
16,4.61,Cn1nc(C(F)F)c(C(=O)N(Cc2ccc(-c3ccsc3)cc2C2(C)CC2)C2CC2)c1F [I.040]
17,5.03,CCCC1(c2ccc(C)cc2CN(C(=O)c2c(C(F)F)nn(C)c2F)C2CC2)CC1 [I.130]
18,4.63,Cn1nc(C(F)F)c(C(=S)N(Cc2ccccc2C2(C)CC2)C2CC2)c1Cl [I.004]

# Same assay, conditions: reversed-phase HPLC column (C 18); Table 3 (amines of formula II); HPLC C 18, 40° C., 0.1% aqueous formic acid and acetonitrile
row,chromatographic logP,Compound
1,1.7,"CC1(c2ccc(Cl)cc2CNC2CC2)CC1 [II.10, N-[5-chloro-2-(1-methylcyclopropyl)benzyl]cyclopropanamine]"
2,4.07,"Cc1ccc(C2(C)CC2)c(CNC2(C#N)CC2)c1 [II.14, 1-{[5-methyl-2-(1-methylcyclopropyl)benzyl]amino}cyclopropanecarbonitrile]"
3,1.69,"CCC1(c2cc(C)c(F)cc2CNC2CC2)CC1 [II.27, N-[2-(1-ethylcyclopropyl)-5-fluoro-4-methylbenzyl]cyclopropanamine]"
4,1.38,"Cc1ccc(C2(C)CC2)c(CNC2CC2)c1 [II.12, N-[5-methyl-2-(1-methylcyclopropyl)benzyl]cyclopropanamine]"
5,1.81,"CCCC1(c2ccc(C)cc2CNC2CC2)CC1 [II.33, N-[5-methyl-2-(1-propylcyclopropyl)benzyl]cyclopropanamine]"
6,1.47,"FC(F)(F)C1(c2ccc(Cl)cc2CNC2CC2)CC1 [II.44, N-{5-chloro-2-[1-(trifluoromethyl)cyclopropyl]benzyl}cyclopropanamine]"
7,0.77,"N#CC1(c2ccc(Cl)cc2CNC2CC2)CC1 [II.20, 1-{4-chloro-2-[(cyclopropylamino)methyl]phenyl}cyclopropanecarbonitrile]"

# Same assay, conditions: reversed-phase HPLC column (C 18); Table 4 (aldehydes of formula IV); HPLC C 18, 40° C., 0.1% aqueous formic acid and acetonitrile
row,chromatographic logP,Compound
1,4.29,"CCC1(c2ccc(C)cc2C=O)CC1 [IV.18, 2-(1-ethylcyclopropyl)-5-methylbenzaldehyde]"
2,3.04,"O=Cc1cc(Cl)ccc1C1(C(F)F)CC1 [IV.20, 5-chloro-2-[1-(difluoromethyl)cyclopropyl]benzaldehyde]"
3,3.15,"CC1(c2cc(F)ccc2C=O)CC1 [IV.03, 4-fluoro-2-(1-methylcyclopropyl)benzaldehyde]"
4,2.68,"COC(=O)C1(c2ccc(Cl)cc2C=O)CC1 [IV.25, methyl 1-(4-chloro-2-formylphenyl)cyclopropanecarboxylate]"
5,3.76,"CC1(c2ccc(Cl)cc2C=O)CC1 [IV.10, 5-chloro-2-(1-methylcyclopropyl)benzaldehyde]"

# Same assay, conditions: reversed-phase HPLC column (C 18); Table 5 (formula V); HPLC C 18, 40° C., 0.1% aqueous formic acid and acetonitrile
row,chromatographic logP,Compound
1,4.86,"CC1(c2c(Cl)cccc2CBr)CC1 [V.01, 1-(bromomethyl)-3-chloro-2-(1-methylcyclopropyl)benzene]"

# Same assay, conditions: reversed-phase HPLC column (C 18); preparation examples
row,chromatographic logP,Compound
1,3.39,"Cn1nc(C(F)F)c(C(=O)N(Cc2cc(F)ccc2C2(C(F)F)CC2)C2CC2)c1F [I.151, N-cyclopropyl-3-(difluoromethyl)-N-{2-[1-(difluoromethyl)-cyclopropyl]-5-fluorobenzyl}-5-fluoro-1-methyl-1H-pyrazole-4-carboxamide]"

# Test system: Uromyces appendiculatus
# Assay: In vivo preventive test on Uromyces appendiculatus (bean rust)
# Details: Table B1, dose 10 ppm
# Experimental: In Vivo Preventive Test on Uromyces appendiculatus (Bean Rust)
# Solvent: 5% by volume of Dimethyl sulfoxide • 10% by volume of Acetone
# Emulsifier: 1 μL of Tween® 80 per mg of active ingredient
# The active ingredients are made soluble and homogenized in a mixture of Dimethyl sulfoxide/Acetone/Tween® 80 and then diluted in water to the desired concentration.
# The young plants of bean are treated by spraying the active ingredient prepared as described above. Control plants are treated only with an aqueous solution of Acetone/Dimethyl sulfoxide/Tween® 80.
# After 24 hours, the plants are contaminated by spraying the leaves with an aqueous suspension of Uromyces appendiculatus spores. The contaminated bean plants are incubated for 24 hours at 20° C. and at 100% relative humidity and then for 10 days at 20° C. and at 70-80% relative humidity.
# The test is evaluated 11 days after the inoculation. 0% means an efficacy which corresponds to that of the control plants while an efficacy of 100% means that no disease is observed.
row,Compound,Efficacy [%]
1,"Cn1nc(C(F)F)c(C(=O)N(Cc2c(C3CC3)ccc(F)c2F)C2CC2)c1F [54 from WO-2010/130767, N-cyclopropyl-N-(6-cyclopropyl-2,3-difluorobenzyl)-3-(difluoromethyl)-5-fluoro-1-methyl-1H-pyrazole-4-carboxamide, reference compound]",29
2,"Cn1nc(C(F)F)c(C(=O)N(Cc2cc(F)ccc2C2(C(F)F)CC2)C2CC2)c1F [I.151, N-cyclopropyl-3-(difluoromethyl)-N-{2-[1-(difluoromethyl)-cyclopropyl]-5-fluorobenzyl}-5-fluoro-1-methyl-1H-pyrazole-4-carboxamide]",100

# Same assay, conditions: Table B1, dose 100 ppm
row,Compound,Efficacy [%]
1,"Cn1nc(C(F)F)c(C(=O)N(Cc2c(C3CC3)ccc(F)c2F)C2CC2)c1F [54 from WO-2010/130767, N-cyclopropyl-N-(6-cyclopropyl-2,3-difluorobenzyl)-3-(difluoromethyl)-5-fluoro-1-methyl-1H-pyrazole-4-carboxamide, reference compound]",100
2,"Cn1nc(C(F)F)c(C(=O)N(Cc2cc(F)ccc2C2(C(F)F)CC2)C2CC2)c1F [I.151, N-cyclopropyl-3-(difluoromethyl)-N-{2-[1-(difluoromethyl)-cyclopropyl]-5-fluorobenzyl}-5-fluoro-1-methyl-1H-pyrazole-4-carboxamide]",100

# Same assay, conditions: dose of 100 and 10 ppm of active ingredient
row,Compound,protection
1,"Cn1nc(C(F)F)c(C(=O)N(Cc2c(C3CC3)ccc(F)c2F)C2CC2)c1F [54 from WO-2010/130767, N-cyclopropyl-N-(6-cyclopropyl-2,3-difluorobenzyl)-3-(difluoromethyl)-5-fluoro-1-methyl-1H-pyrazole-4-carboxamide, reference compound]",total to poor (less than 30%) protection
2,"Cn1nc(C(F)F)c(C(=O)N(Cc2cc(F)ccc2C2(C(F)F)CC2)C2CC2)c1F [I.151, N-cyclopropyl-3-(difluoromethyl)-N-{2-[1-(difluoromethyl)-cyclopropyl]-5-fluorobenzyl}-5-fluoro-1-methyl-1H-pyrazole-4-carboxamide]",total protection
